Measured values taken from US10993983B2, “Cyclic peptide epitopes and small-molecule mimics for inducing autophagy” (TRUSTEES OF TUFTS COLLEGE, priority 2016, dated 2021).
Entries after “also recorded” stand apart in the source; their conditions may differ. Bridges are numbered along the chain shown (N, C = ends). Where no end group is shown, it is not given here. [ ]: non-standard residue; d: D form. The star is where a group is joined. PhAc = O=C(Cc1ccccc1)*; Allyl = C=CC*

System: HeLa cells
Experiment: Autophagy induction judged by p62 and LC3 immunoblots together
Format: cell-based
Design: key to Activity compared to wild-type WT / Activity (μM) 10, single symbol / Activity (μM) 30, single symbol / Activity (μM) 50, single symbol / Activity (μM) 100, single symbol: −: activity not reported; 0: decreased vs. WT; +: similar to WT; ++: modest increase vs. WT; +++: significant increase vs. WT
Settings: 10 μM; Table 8; one symbol only
Procedure: This 10-mer sequence was substituted with various thiol-containing amino acids at various positions, and then cross-linked with various linkers as described above (FIG. 5, a and FIG. 6).
Cells were treated with peptide in OPTI-MEM (Thermo Scientific) acidified with 0.15% (v/v) 6N HCl for 3 hour. Cells were rinsed with Dulbecco's phosphate buffered saline (PBS) and lysed in lysis buffer (20 mM HEPES, 150 mM NaCl, 1 mM EDTA, 1% Triton X-100, protease inhibitor cocktail (Roche) on ice for 1 hour. Cell lysates were centrifuged at 16,000 g for 10 min at 4° C. and analyzed by SDS-PAGE and transferred to PVDF membranes. The membranes were blocked 5% non-fat dry milk (NFDM) in PBST (PBS+0.05% Tween-20) for 1 hour, then incubated overnight at 4° C. with primary antibody in 5% NFDM in PBST. The blots were washed with PBST and incubated with HRP-conjugated secondary antibodies diluted in 5% NFDM in PBST for 1 hour at room temperature. Membranes were washed with PBST and visualized with SuperSignal West Pico Chemiluminescent Substrate (Thermo Scientific). Semi-quantitative results were obtained by noting the lowest concentration at which both p62 degradation and LC3-I to LC3-II conversion were observed.
(SEQ ID NO: 16)-Sequence. […] The N-terminus was capped with an acetyl group while the C terminus was capped with a —C(O)—NH2 group. The activity reported is a summation of results from both the p62 degradation assay and the LC3 marker assay.

| Substance | Activity (μM) 10, single symbol |
| --- | --- |
| VCNATCHIWH (V[dC]NAT[dC]HIWH; cysteine pairing not given here; also: Formula I modifications, R1 T, Z MP) [Compound 75] | + |

Same assay, conditions: HeLa cells, immunoblot, 3 hour treatment

| Substance | concentration at which autophagy induction (p62 degradation and LC3 lipidation) was observed [µM] |
| --- | --- |
| (pa)-VcNAcFHIAH (pa-V[dC]NA[dC]FHIAH; linker 2-5 via ortho‑xylene (inferred)) [Trp9Ala] | 100 |
| (pa)-VcNAcFHIWA (pa-V[dC]NA[dC]FHIWA; linker 2-5 via ortho‑xylene (inferred)) [His10Ala] | 100 |
| (pa)-VcNAcFHIWH [LL5-o] (VCNACFHIWH; not fully specified (residues 2, 5, N-terminus, bridges); printed as (pa)-VcNAcFHIWH; cysteine pairing not given here) [ortho-xylene linker; stereoisomer with two L-cysteines, negative control] | 100 |
| (pentene)-VcNAcFHIWH [pentene-DD5-o] | 50 |

Same assay, conditions: HeLa cells, p62 and LC3 immunoblots

| Substance | autophagy induction, result in words | activity relative to DD5-o (fold worse) [fold] |
| --- | --- | --- |
| (pa)-VcNAcFAIWH (pa-V[dC]NA[dC]FAIWH; linker 2-5 via ortho‑xylene (inferred)) [His7Ala] | milder effects on activity | – |
| (pa)-VcNAcFHAWH (pa-V[dC]NA[dC]FHAWH; linker 2-5 via ortho‑xylene (inferred)) [Ile8Ala] | complete loss of activity; also recorded: complete loss in activity | – |
| (pa)-VcNAcFHIAH (pa-V[dC]NA[dC]FHIAH; linker 2-5 via ortho‑xylene (inferred)) [Trp9Ala] | significantly decreased activity | – |
| (pa)-VcNAcFHIWA (pa-V[dC]NA[dC]FHIWA; linker 2-5 via ortho‑xylene (inferred)) [His10Ala] | significantly decreased activity | 5 |
| (pa)-VcNAcFHIWH [DD5-allyl] (pentynoyl-V[dC](Allyl)NA[dC](Allyl)FHIWH; not fully specified (C-terminus); printed as (pa)-VcNAcFHIWH [DD5-allyl]) [allyl, unstapled] | did not induce autophagy | – |
| (pa)-VcNAcFHIWH [DD5-m] (pa-V[dC]NA[dC]FHIWH; linker 2-5 via meta‑xylene (inferred)) | did not induce autophagy | – |
| (pa)-VcNAcFHIWH [LL5-o] (VCNACFHIWH; not fully specified (residues 2, 5, N-terminus, bridges); printed as (pa)-VcNAcFHIWH; cysteine pairing not given here) [ortho-xylene linker; stereoisomer with two L-cysteines, negative control] | no autophagy-inducing activity | – |
| (pentene)-VcNAcFHIWH [pentene-DD5-o] | induced autophagy, but to a somewhat lesser extent than DD5-o | – |
| (phenyl)-VcNAcFHIWH (PhAc-V[dC]NA[dC]FHIWH; linker 2-5 via ortho‑xylene (inferred); not fully specified (C-terminus); printed as (phenyl)-VcNAcFHIWH) [phenyl-DD5-o] | showed no activity | – |
| VFDATFEIWHD [Compound T3, Tat-linked linear peptide] | less than Tat-beclin-1 | – |

Same assay, conditions: Tat-linked linear peptides; summation of p62 degradation assay and LC3 marker assay

| Substance | Activity compared to wild-type WT |
| --- | --- |
| CFNATFEIWHD [Compound T1, Tat-linked linear peptide] | + |
| DFNATFEIWHD [Compound T23, Tat-linked linear peptide] | 0 |
| FNATFEIWH [Compound T30, Tat-linked linear peptide] | + |
| FNATFEIWHD [Compound T21, Tat-linked linear peptide] | ++ |
| FNATFHIWH [Compound T31, Tat-linked linear peptide] | + |
| GFNATFEIWHD [Compound T24, Tat-linked linear peptide] | 0 |
| TFNATFEIWHD [Compound T22, Tat-linked linear peptide] | 0 |
| VFNACFEIWHD [Compound T5, Tat-linked linear peptide] | 0 |
| VFNATFDIWHD [Compound T7, Tat-linked linear peptide] | + |
| VFNATFEFWHD [Compound T18, Tat-linked linear peptide] | + |
| VFNATFEIFHD [Compound T9, Tat-linked linear peptide] | + |
